In ChEMBL document CHEMBL1201862, “PubChem BioAssay data set” (2004):
Active and inactive are the calls of the source.

Experiments:
[1] = molecular target: Lysine-specific demethylase 4C (Homo sapiens, UniProt Q9H3R0); test: inhibition of JMJD2C H3K9me3 demethylation – biochemical, DELFIA europium, cherry-picked samples, dose response (AID 488835); format: functional
[2] = molecular target: T1, Mannose-6-phosphate isomerase (Homo sapiens, UniProt P34949); test: MPI enzyme activity inhibition – biochemical, fluorescence intensity, coupled assay, primary screen (AID 1209)
T1 sequence (P34949 whole entry): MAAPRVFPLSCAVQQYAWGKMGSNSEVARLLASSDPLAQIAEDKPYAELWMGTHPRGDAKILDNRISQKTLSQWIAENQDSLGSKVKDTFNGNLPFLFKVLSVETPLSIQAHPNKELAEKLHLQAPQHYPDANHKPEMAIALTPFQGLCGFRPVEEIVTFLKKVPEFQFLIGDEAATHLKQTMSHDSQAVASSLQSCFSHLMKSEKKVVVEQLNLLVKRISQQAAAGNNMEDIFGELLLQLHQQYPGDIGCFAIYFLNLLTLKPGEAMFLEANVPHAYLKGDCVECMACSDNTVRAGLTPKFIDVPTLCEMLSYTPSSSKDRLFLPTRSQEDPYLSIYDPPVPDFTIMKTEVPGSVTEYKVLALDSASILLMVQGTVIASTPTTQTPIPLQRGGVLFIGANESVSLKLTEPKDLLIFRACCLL

[3] = molecular target: Induced myeloid leukemia cell differentiation protein Mcl-1 (Homo sapiens, UniProt Q07820); format: functional
Induced myeloid leukemia cell differentiation protein Mcl-1, sequence (Q07820 whole entry): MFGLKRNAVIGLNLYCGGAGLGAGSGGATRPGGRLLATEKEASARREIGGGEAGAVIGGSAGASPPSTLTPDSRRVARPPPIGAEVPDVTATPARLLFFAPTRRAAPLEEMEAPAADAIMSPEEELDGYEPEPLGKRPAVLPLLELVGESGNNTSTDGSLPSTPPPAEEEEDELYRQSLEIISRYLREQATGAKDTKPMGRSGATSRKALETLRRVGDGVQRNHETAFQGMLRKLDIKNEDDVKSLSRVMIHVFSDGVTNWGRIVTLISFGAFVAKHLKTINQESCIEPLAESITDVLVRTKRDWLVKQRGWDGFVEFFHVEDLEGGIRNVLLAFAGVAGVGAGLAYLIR

[4] = molecular target: DNA dC->dU-editing enzyme APOBEC-3A (Homo sapiens, UniProt P31941); test: A3A deaminase inhibition for selectivity – biochemical, dose response (AID 504722); format: functional
DNA dC->dU-editing enzyme APOBEC-3A, sequence (P31941 whole entry): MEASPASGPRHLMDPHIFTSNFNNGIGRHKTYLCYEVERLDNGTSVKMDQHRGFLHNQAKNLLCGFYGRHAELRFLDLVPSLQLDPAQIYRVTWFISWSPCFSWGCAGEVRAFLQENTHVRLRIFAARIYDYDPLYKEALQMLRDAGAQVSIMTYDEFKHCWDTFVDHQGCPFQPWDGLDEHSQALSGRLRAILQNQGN

[5] = molecular target: T2, Short transient receptor potential channel 4 (Mus musculus, UniProt Q9QUQ5); test: block of DAMGO-driven TRPC4 calcium entry – cell-based, HEK293 TRPC4/mu-opioid, Fluo-4 calcium, dose response (AID 434942); format: functional;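 further: potency of inhibitors blocking the TRPC4 calcium response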
T2 sequence (Q9QUQ5 whole entry): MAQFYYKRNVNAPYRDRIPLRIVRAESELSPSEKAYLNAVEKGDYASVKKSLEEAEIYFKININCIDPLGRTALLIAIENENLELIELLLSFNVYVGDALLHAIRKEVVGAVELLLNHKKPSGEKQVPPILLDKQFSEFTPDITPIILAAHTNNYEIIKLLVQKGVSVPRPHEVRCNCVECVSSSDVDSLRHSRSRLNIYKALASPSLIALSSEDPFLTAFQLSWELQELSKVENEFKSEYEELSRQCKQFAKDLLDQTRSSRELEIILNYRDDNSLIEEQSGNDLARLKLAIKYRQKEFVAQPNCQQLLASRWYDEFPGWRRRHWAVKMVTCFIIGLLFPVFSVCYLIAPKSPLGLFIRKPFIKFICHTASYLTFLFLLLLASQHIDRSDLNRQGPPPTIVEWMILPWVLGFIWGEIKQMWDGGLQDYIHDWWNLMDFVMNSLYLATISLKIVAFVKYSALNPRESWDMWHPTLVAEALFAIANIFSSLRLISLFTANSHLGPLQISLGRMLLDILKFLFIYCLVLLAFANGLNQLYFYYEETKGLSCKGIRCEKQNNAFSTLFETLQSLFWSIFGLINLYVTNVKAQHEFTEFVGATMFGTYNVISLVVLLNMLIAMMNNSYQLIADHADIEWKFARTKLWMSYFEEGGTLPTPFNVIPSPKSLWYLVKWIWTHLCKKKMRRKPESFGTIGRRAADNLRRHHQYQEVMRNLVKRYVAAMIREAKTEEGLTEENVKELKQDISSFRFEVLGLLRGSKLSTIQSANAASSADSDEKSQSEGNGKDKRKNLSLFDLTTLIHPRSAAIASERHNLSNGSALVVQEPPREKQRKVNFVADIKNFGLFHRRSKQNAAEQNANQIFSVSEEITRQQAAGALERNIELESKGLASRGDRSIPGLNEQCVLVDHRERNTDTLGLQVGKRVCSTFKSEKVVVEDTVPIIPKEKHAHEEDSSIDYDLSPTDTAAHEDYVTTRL

[6] = molecular target: DNA dC->dU-editing enzyme APOBEC-3G (Homo sapiens, UniProt Q9HC16); test: Dose Response confirmation of small molecule APOBEC3G DNA Deaminase Inhibitors via a fluorescence-based single-stranded DNA deaminase assay. [Related pubchem assays (depositor defined):AID493012, AID493028]; format: functional
DNA dC->dU-editing enzyme APOBEC-3G, sequence (Q9HC16 whole entry): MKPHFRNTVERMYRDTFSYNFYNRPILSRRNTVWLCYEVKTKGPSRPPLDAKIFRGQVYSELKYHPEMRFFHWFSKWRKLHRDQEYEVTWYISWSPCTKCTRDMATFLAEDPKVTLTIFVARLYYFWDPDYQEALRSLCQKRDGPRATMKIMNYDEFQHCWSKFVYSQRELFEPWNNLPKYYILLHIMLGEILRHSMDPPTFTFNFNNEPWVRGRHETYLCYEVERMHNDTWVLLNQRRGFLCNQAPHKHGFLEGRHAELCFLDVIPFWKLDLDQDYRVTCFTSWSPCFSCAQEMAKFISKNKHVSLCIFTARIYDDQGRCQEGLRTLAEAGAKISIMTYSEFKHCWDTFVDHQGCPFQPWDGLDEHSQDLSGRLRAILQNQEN

[7] = molecular target: DNA damage-inducible transcript 3 protein (Mus musculus, UniProt P35639); format: functional, Cricetulus griseus
DNA damage-inducible transcript 3 protein, sequence (P35639 whole entry): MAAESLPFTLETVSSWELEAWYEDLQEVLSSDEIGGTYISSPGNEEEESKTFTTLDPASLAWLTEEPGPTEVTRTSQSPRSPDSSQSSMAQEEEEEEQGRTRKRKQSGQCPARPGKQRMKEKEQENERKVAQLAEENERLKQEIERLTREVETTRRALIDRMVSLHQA

[8] = molecular target: T3, Rac GTPase-activating protein 1 (Homo sapiens, UniProt Q9H0H5); test: blockers of MgcRacGAP-driven Rac1 GTP hydrolysis – biochemical, ADP Hunter fluorescence, primary and confirmatory, confirmation (AID 624330); format: functional
T3 sequence (Q9H0H5 whole entry): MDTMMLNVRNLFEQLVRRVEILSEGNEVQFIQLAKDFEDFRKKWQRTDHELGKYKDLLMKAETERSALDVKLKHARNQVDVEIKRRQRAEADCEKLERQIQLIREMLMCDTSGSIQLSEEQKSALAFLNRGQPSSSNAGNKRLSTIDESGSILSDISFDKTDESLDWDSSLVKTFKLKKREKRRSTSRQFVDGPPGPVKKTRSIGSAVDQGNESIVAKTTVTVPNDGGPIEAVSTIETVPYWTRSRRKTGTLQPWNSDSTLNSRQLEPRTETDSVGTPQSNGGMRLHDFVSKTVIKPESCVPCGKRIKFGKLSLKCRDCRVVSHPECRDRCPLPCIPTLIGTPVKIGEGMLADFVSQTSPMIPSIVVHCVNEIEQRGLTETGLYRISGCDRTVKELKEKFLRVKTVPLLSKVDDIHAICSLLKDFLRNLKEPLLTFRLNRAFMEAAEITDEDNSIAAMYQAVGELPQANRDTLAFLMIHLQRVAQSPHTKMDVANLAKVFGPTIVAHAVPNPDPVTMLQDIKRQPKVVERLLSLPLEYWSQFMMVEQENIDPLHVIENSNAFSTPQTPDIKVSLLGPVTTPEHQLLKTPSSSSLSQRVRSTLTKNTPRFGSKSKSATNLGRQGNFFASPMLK

[9] = molecular target: SWI/SNF-related matrix-associated actin-dependent regulator of chromatin subfamily A member 2 (Homo sapiens, UniProt P51531); test: Luminescence-based cell-based high throughput dose response assay to identify activators of the function of SWI/SNF related, matrix associated, actin dependent regulator of chromatin, subfamily a, member 2 (SMARCA2, BRM).; format: functional
[10] = Counterscreen for activators of the function of SWI/SNF related, matrix associated, actin dependent regulator of chromatin, subfamily a, member 2 (SMARCA2, BRM): Luminescence-based cell-based high throughput dose response assay to identify non-selective compounds using the VP16 reporter assay.; format: functional
[11] = tested on: Streptococcus sp. 'group A'; test: Streptococcus pyogenes SK(-)GAS viability under kanamycin – luminescence, BacTiterGlo, confirmation, counter-screen for streptokinase expression inhibitor project, dose response (AID 1900); format: functional, organism-based
[12] = molecular target: T4, Streptokinase A (Streptococcus pyogenes serotype M1, UniProt P10520); test: viability-normalized secreted streptokinase activity reduction – plasminogen activation absorbance, OD405, dose response (AID 1914); format: functional, Streptococcus pyogenes M1 GAS;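 further: secreted streptokinase activity via plasminogen activation per viability signal from cell pellet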
T4 sequence (P10520 whole entry): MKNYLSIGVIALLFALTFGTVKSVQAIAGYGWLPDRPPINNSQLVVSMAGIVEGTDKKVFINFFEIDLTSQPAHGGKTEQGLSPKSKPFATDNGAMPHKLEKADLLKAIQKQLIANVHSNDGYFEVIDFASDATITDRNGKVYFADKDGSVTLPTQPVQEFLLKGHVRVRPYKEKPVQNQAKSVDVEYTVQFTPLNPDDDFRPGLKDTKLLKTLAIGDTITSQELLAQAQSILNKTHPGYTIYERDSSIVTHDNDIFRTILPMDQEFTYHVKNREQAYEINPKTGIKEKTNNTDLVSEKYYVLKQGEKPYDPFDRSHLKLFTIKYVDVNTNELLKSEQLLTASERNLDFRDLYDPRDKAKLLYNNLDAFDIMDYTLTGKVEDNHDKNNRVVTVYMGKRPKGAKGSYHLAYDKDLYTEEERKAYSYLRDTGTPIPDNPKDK

[13] = tested on: Streptococcus; test: GAS UMAA2166 growth inhibition – luminescence, BacTiterGlo, counter-screen for streptokinase expression inhibitor project, dose response (AID 1915); format: functional, organism-based;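 further: potency for reduction of bacterial viability or growth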
[14] = molecular target: G-protein coupled receptor 55 (Homo sapiens, UniProt Q9Y2T6); test: selective activators of receptor GPR55 – imaging, U2OS cells, beta-arrestin-GFP redistribution, primary screen (AID 1961); format: functional
G-protein coupled receptor 55, sequence (Q9Y2T6 whole entry): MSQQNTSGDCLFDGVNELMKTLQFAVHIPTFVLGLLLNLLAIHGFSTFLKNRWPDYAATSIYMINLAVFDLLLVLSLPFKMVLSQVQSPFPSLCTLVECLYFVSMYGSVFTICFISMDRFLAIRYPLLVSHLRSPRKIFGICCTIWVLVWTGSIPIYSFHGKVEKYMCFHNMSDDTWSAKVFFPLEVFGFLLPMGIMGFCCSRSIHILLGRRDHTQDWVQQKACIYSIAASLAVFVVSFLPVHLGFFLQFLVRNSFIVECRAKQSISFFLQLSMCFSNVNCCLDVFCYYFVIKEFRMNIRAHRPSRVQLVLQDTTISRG

[15] = Luminescence Cell-Based Dose Retest to Confirm Inhibitors of Cancer Stem Cells. [Related pubchem assays (depositor defined):AID2717, AID2721]; format: functional; conditions: Homo sapiens
[16] = Luminescence Cell-Based Dose Response HTS to Identify Activators of Luciferase Translation or Activity in H4 […] Cells. [Related pubchem assays: 1829 (Project Summary), 1814 (Primary HTS)]; format: functional
[17] = tested on: H4; test: Luminescence Cell-Based Dose Response HTS to Identify Activators of 5'UTR Stem-Loop Driven Prion Protein mRNA Translation in H4 Neuroglioblastoma Cells. [Related pubchem assays: 1829 (Project Summary), 1814 (Primary HTS)]; format: functional; conditions: Homo sapiens
[18] = molecular target: Troponin, cardiac muscle (Homo sapiens, UniProt P19429+P45379+P63316); test: Fluorescence-based biochemical high throughput dose response assay for activators of the calcium sensitivity of cardiac Regulated Thin Filaments (RTF). [Related pubchem assays (depositor defined):AID493008, AID493018, AID504382, AID504383]; format: protein-complex assay
[19] = molecular target: T5, Delta-type opioid receptor (Homo sapiens, UniProt P41143); test: HTS Image-Based Screen for Antagonists of the DOR Receptor. [Related pubchem assays (depositor defined):AID1777, AID1785, AID1786, AID2133]; format: functional
T5 sequence (P41143 whole entry): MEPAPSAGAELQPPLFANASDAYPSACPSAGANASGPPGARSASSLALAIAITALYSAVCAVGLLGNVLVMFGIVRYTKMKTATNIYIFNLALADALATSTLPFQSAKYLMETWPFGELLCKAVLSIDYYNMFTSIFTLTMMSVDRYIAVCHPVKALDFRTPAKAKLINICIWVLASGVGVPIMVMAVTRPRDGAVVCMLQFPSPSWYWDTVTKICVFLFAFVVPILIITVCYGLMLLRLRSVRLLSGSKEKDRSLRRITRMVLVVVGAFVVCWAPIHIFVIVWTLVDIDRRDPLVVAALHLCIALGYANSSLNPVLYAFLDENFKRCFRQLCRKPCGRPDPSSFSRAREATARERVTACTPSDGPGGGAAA

[20] = molecular target: Mu-type opioid receptor (Homo sapiens, UniProt P35372); test: HTS Image-Based Screen for Agonists of the MOR Receptor. [Related pubchem assays (depositor defined):AID1777, AID1785, AID1786, AID2133]; format: functional;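 further: imaging of beta-arrestin GFP recruitment into spots after receptor activation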
Mu-type opioid receptor, sequence (P35372 whole entry): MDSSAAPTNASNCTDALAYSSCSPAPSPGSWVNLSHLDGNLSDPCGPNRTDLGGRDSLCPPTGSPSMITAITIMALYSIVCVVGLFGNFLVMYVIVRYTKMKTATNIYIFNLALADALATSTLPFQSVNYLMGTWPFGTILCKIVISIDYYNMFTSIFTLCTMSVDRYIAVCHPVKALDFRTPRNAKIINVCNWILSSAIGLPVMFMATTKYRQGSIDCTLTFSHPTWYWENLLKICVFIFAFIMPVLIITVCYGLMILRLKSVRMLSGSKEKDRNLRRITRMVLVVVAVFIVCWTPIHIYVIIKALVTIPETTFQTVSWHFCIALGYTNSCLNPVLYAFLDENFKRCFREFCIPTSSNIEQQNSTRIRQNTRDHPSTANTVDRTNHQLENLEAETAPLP

[21] = molecular target: T5, Delta-type opioid receptor; test: HTS Image-Based Screen for Agonists of the DOR Receptor. [Related pubchem assays (depositor defined):AID1777, AID1786, AID2133]; format: functional
[22] = molecular target: T6, Kappa-type opioid receptor (Homo sapiens, UniProt P41145); format: functional
T6 sequence (P41145 whole entry): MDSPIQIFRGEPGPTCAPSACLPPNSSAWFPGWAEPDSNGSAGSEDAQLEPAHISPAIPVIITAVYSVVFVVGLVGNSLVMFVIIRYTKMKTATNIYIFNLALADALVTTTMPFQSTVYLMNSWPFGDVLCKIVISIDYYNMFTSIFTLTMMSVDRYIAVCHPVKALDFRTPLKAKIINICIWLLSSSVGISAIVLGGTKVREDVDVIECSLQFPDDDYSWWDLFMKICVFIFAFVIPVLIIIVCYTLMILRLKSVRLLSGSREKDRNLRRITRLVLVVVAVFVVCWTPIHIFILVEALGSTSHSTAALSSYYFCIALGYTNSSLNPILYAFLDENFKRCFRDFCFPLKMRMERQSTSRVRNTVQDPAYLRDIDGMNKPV

[23] = molecular target: T7, Beta-galactosidase (Escherichia coli, UniProt Q8VNN2); format: functional
T7 sequence (Q8VNN2 whole entry): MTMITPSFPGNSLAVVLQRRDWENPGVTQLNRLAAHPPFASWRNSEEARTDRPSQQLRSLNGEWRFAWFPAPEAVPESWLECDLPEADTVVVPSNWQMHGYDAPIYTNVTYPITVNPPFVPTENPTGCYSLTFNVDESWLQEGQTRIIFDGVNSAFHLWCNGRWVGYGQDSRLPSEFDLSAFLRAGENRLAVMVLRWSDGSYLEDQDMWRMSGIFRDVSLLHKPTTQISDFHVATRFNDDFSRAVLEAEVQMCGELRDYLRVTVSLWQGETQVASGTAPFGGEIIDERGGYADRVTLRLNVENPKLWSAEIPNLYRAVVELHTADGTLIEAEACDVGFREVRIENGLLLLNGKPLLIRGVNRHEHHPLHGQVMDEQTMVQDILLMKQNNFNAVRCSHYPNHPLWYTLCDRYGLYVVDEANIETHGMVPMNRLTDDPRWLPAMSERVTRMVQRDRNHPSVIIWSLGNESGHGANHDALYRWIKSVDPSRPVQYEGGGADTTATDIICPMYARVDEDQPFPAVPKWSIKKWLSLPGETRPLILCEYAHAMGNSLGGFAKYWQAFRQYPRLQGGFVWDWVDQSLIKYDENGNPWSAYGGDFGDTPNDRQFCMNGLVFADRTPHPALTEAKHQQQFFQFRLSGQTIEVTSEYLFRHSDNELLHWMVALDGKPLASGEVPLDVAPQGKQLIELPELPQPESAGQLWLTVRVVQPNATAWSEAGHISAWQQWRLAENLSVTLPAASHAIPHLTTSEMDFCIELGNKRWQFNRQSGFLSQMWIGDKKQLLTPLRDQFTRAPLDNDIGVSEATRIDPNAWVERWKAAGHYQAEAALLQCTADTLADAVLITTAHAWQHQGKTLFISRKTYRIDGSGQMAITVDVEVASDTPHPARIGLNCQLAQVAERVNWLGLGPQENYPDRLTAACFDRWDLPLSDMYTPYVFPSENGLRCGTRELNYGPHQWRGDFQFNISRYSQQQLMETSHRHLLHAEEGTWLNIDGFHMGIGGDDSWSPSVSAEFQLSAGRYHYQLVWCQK

[24] = molecular target: T6, Kappa-type opioid receptor; format: functional; remark: listed apart in the source
[25] = molecular target: T7, Beta-galactosidase; test: detection-enzyme interference by beta-gal modulators – biochemical, E. coli enzyme, set 3, artefact control for CCR6 antagonist project, dose response (AID 504712); format: functional
[26] = molecular target: T1, Mannose-6-phosphate isomerase; test: MPI inhibition at elevated mannose 6-phosphate – biochemical, fluorescence intensity, high mannose 6-phosphate, primary screen (AID 1220)
[27] = molecular target: CAAX prenyl protease 2 (Saccharomyces cerevisiae S288c, UniProt Q03530); format: biochemical
CAAX prenyl protease 2, sequence (Q03530 whole entry): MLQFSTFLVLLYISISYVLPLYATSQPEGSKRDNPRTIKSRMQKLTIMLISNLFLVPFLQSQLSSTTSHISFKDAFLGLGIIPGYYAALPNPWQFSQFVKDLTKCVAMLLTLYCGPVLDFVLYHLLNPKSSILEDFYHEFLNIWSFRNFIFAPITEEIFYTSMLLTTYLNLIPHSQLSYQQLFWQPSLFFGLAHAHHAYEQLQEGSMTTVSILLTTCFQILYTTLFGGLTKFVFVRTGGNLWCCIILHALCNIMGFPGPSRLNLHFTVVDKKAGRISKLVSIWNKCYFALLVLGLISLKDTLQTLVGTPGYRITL

Lysine-specific demethylase 4C, sequence (Q9H3R0 whole entry): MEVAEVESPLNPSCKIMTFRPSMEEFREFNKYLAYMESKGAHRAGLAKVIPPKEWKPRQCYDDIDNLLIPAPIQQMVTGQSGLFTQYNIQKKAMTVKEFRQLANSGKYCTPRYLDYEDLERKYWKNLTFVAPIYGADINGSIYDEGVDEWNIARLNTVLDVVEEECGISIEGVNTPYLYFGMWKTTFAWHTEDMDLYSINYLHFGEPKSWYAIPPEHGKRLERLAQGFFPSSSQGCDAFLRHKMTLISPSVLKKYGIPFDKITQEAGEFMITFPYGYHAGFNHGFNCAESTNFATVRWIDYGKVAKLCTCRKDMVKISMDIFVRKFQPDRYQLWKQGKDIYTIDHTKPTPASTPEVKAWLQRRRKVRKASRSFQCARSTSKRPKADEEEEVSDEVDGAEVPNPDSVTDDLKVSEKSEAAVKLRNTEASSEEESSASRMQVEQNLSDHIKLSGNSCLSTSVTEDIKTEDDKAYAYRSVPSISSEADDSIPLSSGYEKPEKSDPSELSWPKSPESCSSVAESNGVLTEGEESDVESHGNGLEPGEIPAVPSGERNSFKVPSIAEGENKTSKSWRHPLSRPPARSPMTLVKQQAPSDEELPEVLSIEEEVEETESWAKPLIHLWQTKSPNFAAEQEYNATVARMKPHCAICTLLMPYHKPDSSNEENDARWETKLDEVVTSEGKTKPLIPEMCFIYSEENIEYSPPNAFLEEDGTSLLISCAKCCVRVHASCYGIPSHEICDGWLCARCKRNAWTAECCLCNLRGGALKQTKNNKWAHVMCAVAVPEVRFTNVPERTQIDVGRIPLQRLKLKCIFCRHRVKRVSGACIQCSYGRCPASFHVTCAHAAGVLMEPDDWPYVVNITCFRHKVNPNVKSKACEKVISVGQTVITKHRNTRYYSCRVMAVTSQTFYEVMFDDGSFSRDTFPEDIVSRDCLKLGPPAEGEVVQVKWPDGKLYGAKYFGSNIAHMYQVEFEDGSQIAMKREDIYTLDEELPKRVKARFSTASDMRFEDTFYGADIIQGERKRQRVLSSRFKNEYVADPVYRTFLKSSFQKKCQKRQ

SMILES: O=C(NCCCNCCCNC(=O)c1ccc(/C=N/O)nc1)c1ccc(/C=N/O)nc1
- AC50 [1]: 18 µM (active)

SMILES: CC(=O)C1=C(S(=O)(=O)c2ccc(C)cc2)CS(=O)(=O)C1
- IC50 [2]: 28.1 µM (active)
- IC50 [3]: 10.9 µM (active)
- IC50 [4]: > 100 µM (inactive)
- EC50 [5]: 4.73 µM (active)
- IC50 [6]: 8.26 µM (active)
- Absolute IC50 (CHOP) [7]: 10 µM
- IC50 [8]: 34.3 µM (active)
- EC50 [9]: > 91.2 µM (inactive)
- EC50 [10]: > 91.2 µM (inactive)

SMILES: CC(C)Cn1c(O)c(N=NC(=O)c2cccc(S(=O)(=O)N3CCCCC3)c2)c2ccccc21
- EC50 [11]: 5.53 µM (active)
- EC50 [12]: > 150 µM (not active)
- EC50 [13]: 34.3 µM (active)
- EC50 [14]: 4.75 µM (active)
- AC50 [15]: 20.5 µM (active)

SMILES: CC(/C=N/Nc1ccc2nncn2n1)=C\c1ccccc1
- EC50 [16]: 20.7 µM (active)
- EC50 [17]: > 120 µM (not active)
- EC50 [18]: > 71.5 µM (inactive)

SMILES: O=C(NC(=S)N1CCN(c2ccc(Cl)cc2[N+](=O)[O-])CC1)c1cccs1
- IC50 [19]: > 32 µM (inactive)
- EC50 [20]: > 32 µM (inactive)
- EC50 [11]: 2.08 µM (active)
- EC50 [21]: > 32 µM (inactive)
- IC50 [22]: 12.3 µM (active)
- EC50 [23]: > 31.5 µM (inactive)
- IC50 [24]: > 32 µM
- EC50 [13]: 4.3 µM (active)
- IC50 [25]: > 66.6 µM (inactive)

SMILES: OCCN(CCO)c1ccc2ccccc2c1
- IC50 [2]: 21.3 µM (active)
- IC50 [26]: > 50 µM (not active)
- AC50 [27]: 63.8 µM (active)
- IC50 [8]: 56.3 µM (active)

SMILES: Cc1c(C(=O)c2ccc(Cl)c(Cl)c2)cnc2cc3c(cc12)OCO3
- EC50 [14]: > 32 µM (inactive)
